# Reference: patent publication US20100098657A1, “Method of Treating Cancer with Immunomodulatory Compounds and IgG” (priority 2007, published 2010)
# Read-outs that look alike come from different tables or passages of the source. Peptide text beside a SMILES is read from it.
# Assays:
# NK cells [1] = assay: NK IgG-induced IFN-γ assay; assay type: cell-based, human; conditions: for EC50: Homo sapiens, read-out: EC50 of enhancement of IFN-γ production
# Method: (§1) NK cells and monocytes were isolated from fresh, buffy-coated, whole blood by 30-minute incubation with RossetteSep cocktail (StemCell Technologies, Inc.) followed by Ficoll-Hypaque density gradient centrifugation. CD56+ NK cells were isolated to ˜85% purity and CD14+ monocytes were isolated to ˜80% purity as determined by flow cytometry.
# (§2) To determine whether lenalidomide enhances IFN-γ production, the following assay was performed. Human IgG (Sigma), at a concentration of 100 μg/mL was coated onto 96-well, flat-bottom plates at 4° C. overnight. The unbound IgG was then washed away. […] Lenalidomide (Revlimid®, Celgene Corporation, Summit, N.J.) was added to the wells in the concentration range of 0.008-5 μM. After a 48-hour incubation, the supernatants were harvested and interferon-gamma (IFN-γ), as well as granzyme B and perforin levels were measured.
# [2] = test system: Rituximab-coated Namalwa cells; assay: ADCC assay: NK cell specific lysis of Rituximab-coated Namalwa cells; assay type: cell-based, human; conditions: E:T=10:1; for EC50: Homo sapiens
# Method: (§3) Preparation of NK cells: Purified NK cells (5×10^4) were seeded in 96-well U-bottom plates in 100 μL of 10% RPMI-1640 medium, supplemented with human AB+ serum. […] The cells were then incubated at 37° C. overnight.
# (§4) Preparation of Rituximab-coated target cancer cells: Various NHL cell lines (Namalwa, Raji, Farage, and Jeko-1) were treated with 20 μg/mL Rituximab (Rituximab, Genentech, Inc.) for 30 minutes at 37° C. Excess unbound Rituximab was then removed by a washing step.
# (§5) Addition of Rituximab-coated target cells to NK cells: The Rituximab-coated target cells (5×103/100 μL/well) were added to the pretreated effector NK cells at a ratio of 10:1. The cells were then co-incubated for 4 hours at 37° C.
# (§6) Cytotoxicity analysis: NK cell cytotoxicity against the tumor cell lines was analyzed using a standard lactate dehydrogenase release assay (CytoTox 96 Non-radioactive Cytotoxicity Assay, Promega) to measure ADCC in a 50 μL aliquot of supernatant. The experimental release was corrected by subtraction of the spontaneous release of effector cells at the corresponding dilution. Spontaneous release from target cells alone was <15% of the maximum release as determined with target cells lysed in 1% Triton X-100.
# (§7) Determination of effector: target ratio: Specific lysis for each effector-to-target (E:T) cell ratio was calculated using the following formula: % specific lysis=([experimental release−spontaneous release]/[maximum release−spontaneous release])×100.
# [3] = test system: Rituximab-coated Raji cells; assay: ADCC assay: NK cell specific lysis of Rituximab-coated Raji cells; assay type: cell-based, human; conditions: for EC50: Homo sapiens, Raji
# Method: as §3, §4, §5, §6, §7
# Enhancement of NK cell cytotoxicity by immunomodulatory compounds lenalidomide and pomalidomide was assessed following procedures substantially similar to those described in Section 6.3, above.
# [4] = test system: Rituximab-coated Farage cells; assay: ADCC assay: NK cell specific lysis of Rituximab-coated Farage cells; assay type: cell-based, human; conditions: E:T=10:1; for EC50: Homo sapiens, Farage; for increase of cell lysis: vs Rituximab-only treated cells
# Method: as §3, §4, §5, §6, §7
# [5] = test system: Rituximab-coated CD20+ Jeko-1 (mantle cell lymphoma) cells; assay: ADCC assay: NK cell-mediated killing of Rituximab-coated CD20+ Jeko-1 cells; assay type: cell-based, human; conditions: for NK cell-mediated killing: E:T 50:1; for increase in tumor cell killing above background: single agent
# Method: as §3, §4
# […] The cells were then co-incubated for 4 hours at 37° C.
# as §6, §7
# [6] = test system: Rituximab-coated CD20+ Raji cells; assay: Monocyte-mediated lysis (ADCC) of Rituximab-coated Raji cells; assay type: cell-based, human; conditions: for monocyte-mediated lysis: data not shown
# Method: as §1, §4, §6, §7
# To evaluate monocyte ADCC, similar methods were used to prepare the monocytes.
# [7] = test system: Rituximab-coated Farage cells; assay: Monocyte-mediated lysis (ADCC) of Rituximab-coated Farage cells; assay type: cell-based, human; conditions: E:T 50:1; lenalidomide at 10 μM; from 5%; no IL-2
# Method: as §1, §4, §6
# Determination of effector: target ratio: Specific lysis for each effector-to-target (E:T) cell ratio was calculated using the following formula: % specific lysis=([experimental release−spontaneous release]/[maximum release−spontaneous release])×100. […]
# NK cells [8] = assay: NK cell expression of growth factors/chemokines (IL-2, IgG, lenalidomide); assay type: cell-based, human; conditions: lenalidomide 0.1, 1 or 10 μM with IL-2, IgG
# From the text: (§8) As shown herein, immunomodulatory compounds, either alone or in combination with other agents, can alter the expression of several growth factors.
# Fas-L = Fas-L expression on CD56+ NK cells (flow cytometry); assay type: cell-based, human
# Method: Cytometry was undertaken on 50 μL samples containing 1×10^6 cells/mL in washing buffer, 2% FBS with 0.1% NaN3 in PBS. Fluorochrome-conjugated antibodies, unconjugated antibodies, and isotype control mAb were obtained from PharMingen (San Diego, Calif.). The cells were stained with anti-CD56-PE, anti-FasL-FITC or isotype control mAb (1 μg/10^6 cells), and analyzed by flow cytometry according to the manufacturer's instructions.
# granzyme B = assay: NK cell granzyme B production; assay type: cell-based, human
# Method: as §2
# perforin = assay: NK cell perforin production; assay type: cell-based, human
# Method: as §2
# [9] = test system: Src homology-2 containing inositol 5′-phosphatase 1 (phospho-SHIP-1); assay: Immunoblot analysis of phospho-SHIP-1; assay type: cell-based; conditions: IL-12 plus IgG; lenalidomide 10 μM
# Method: (§9) FIG. 7 is a panel of bar graphs showing the quantitation of an immunoblot comparison of cells treated with either IL-12 alone, IgG alone, IL-12 plus IgG, or IL-12 plus IgG plus lenalidomide (at 0.1 μM to 10 μM).
# SHIP-1 is a negative regulator of cell proliferation, survival, and activation and also a negative regulator of Fc-γ and cytokine receptor-mediated signaling (Parihar et al., 2005, Cancer Res. 65:9099-9107). The inhibition of phospho-SHIP-1 increases IFN-γ release following NK cell stimulation with IgG and IL-12 (Parihar et al., 2005, Cancer Res. 65:9099-9107, which is incorporated by reference herein in its entirety) and thus may contribute to the mechanism of action of lenalidomide.
# pPLC-γ2 = assay: Immunoblot analysis of pPLC-γ2; assay type: cell-based; conditions: IL-12 plus IgG
# Method: as §9
# (§10) Additionally, administration of the immunomodulatory compound lenalidomide was capable of increasing both pPLC-γ2 and pERK levels (FIGS. 7B and 7C). Increase in the levels of these proteins were also observed in connection with pomalidomide (FIGS. 13A and 13B). PLC-γ2 is involved in the maturation and activation of NK cells and triggers the release of lytic granules (Regunathan et al., 2006, Jour. Immunol 175:749-754, which is incorporated by reference herein in its entirety). PLC-γ2 also induces IFN-γ production and is necessary for cytotoxicity and chemokine production.
# pERK = assay: Immunoblot analysis of pERK; assay type: cell-based; conditions: IL-12 plus IgG
# Method: as §9, §10
# [10] = test system: Trastuzumab-coated SK-BR-3 cells; assay: NK cell cytotoxicity against Trastuzumab-coated SK-BR-3 cells; assay type: cell-based, human
# [11] = test system: Cetuximab-coated HCT-116 cells; assay: NK cell cytotoxicity against Cetuximab-coated HCT-116 cells; assay type: cell-based, human; conditions: presence of IL-2
# NK cells [12] = assay: NK cell chemokine/cytokine production in response to Trastuzumab-coated SK-BR3 cells; assay type: cell-based, human; conditions: for production of any chemokines/cytokines: compound alone; for production of GM-CSF / production of IL-8 / production of IP-10 / production of MCP-1 / production of MIP-1α / production of MIP-1β / production of RANTES: presence of immobilized IgG and IL-2
# Method: as §8
# The effects of immunomodulatory compounds lenalidomide and pomalidomide on NK cell chemokine/cytokine production in response to Trastuzumab-coated SK-BR3 cells were assessed using procedures substantially similar to those described in Section 6.6., above.
# [13] = test system: Rituximab-treated target cells; assay: ADCC in the presence of anti-Fas-L or granzyme inhibitor; assay type: cell-based; conditions: lenalidomide plus Rituximab
# From the text: Lenalidomide addition had no effect on perforin production, however (FIGS. 6B and 6C).
# [14] = lenalidomide 1 μM with IL-2, E:T 50:1
# [15] = inhibitor 40 μM/mL added 1 hour prior to lenalidomide and IL-2
compound,measurement,setting,value
"Nc1cccc2c1CN(C1CCC(=O)NC1=O)C2=O (stereo not shown) [lenalidomide, 1-oxo-2-(2,6-dioxopiperidin-3-yl)-4-aminoisoindoline]",EC50,NK cells [1]; immobilized IgG + IL-2,90 nM
same,EC50,NK cells [1]; immobilized IgG + IL-12,46 nM
same,enhancement of IFN-γ production of NK cells,"NK cells [1]; lenalidomide 0.008-5 μM + human IgG + IL-2, vs IgG plus IL-2 alone",3 fold
same,enhancement of IFN-γ production of NK cells,"NK cells [1]; lenalidomide 0.008-5 μM + human IgG + IL-12, vs IgG plus IL-12 alone",8 fold
same,IFN-γ production,"NK cells [1]; lenalidomide alone or lenalidomide plus IgG, no IL-2/IL-12",no IFN-γ was observed
same,increase of NK cell specific lysis,"[2]; presence of IL-2 or IL-12, vs Rituximab-only treated cells",5 fold
same,EC50,[2]; IL-2,190 nM
same,EC50,[2]; IL-12,240 nM
same,increase of NK cell specific lysis,"[3]; E:T=10:1, presence of IL-2 or IL-12, vs Rituximab-only treated cells",2 fold
same,EC50,"[3]; IL-2, E:T=10:1",100 nM
same,EC50,"[3]; IL-12, E:T=10:1",140 nM
same,NK cell cytotoxicity,[3]; presence of IL-2 (FIG. 8B/9B),significantly increases
same,NK cell cytotoxicity,[3]; presence of IL-12 (FIG. 8E/9E),significantly increases
same,EC50,[4]; IL-2,42 nM
same,EC50,[4]; IL-12,33 nM
same,increase of cell lysis,[4]; IL-2,1.8 fold
same,increase of cell lysis,[4]; IL-12,1.6 fold
same,NK cell-mediated killing,"[5]; lenalidomide 1 μM + IL-2, Rituximab-coated cells",95%
same,enhancement of NK cell-mediated killing above background,"[5]; lenalidomide and Rituximab combined, background killing=40%",55%
same,increase in tumor cell killing above background,[5]; background killing=40%,5%
same,increase in NK cell-mediated killing activity,[5]; vs Rituximab-only treatment,1.4 fold
same,increase in NK cell-mediated killing activity,[5]; vs uncoated (control) cells,> 2 fold
same,monocyte-mediated lysis,[6],enhance
same,increase in tumor cell-lysis activity,[6]; [14],2 fold
same,monocyte-mediated killing,[6]; [14],> 60%
same,monocyte-mediated lysis (killing activity),[7],20%
same,NK cell expression of GM-CSF,NK cells [8],increased
same,NK cell expression of IL-6,NK cells [8],decreased
same,NK cell expression of IL-8,NK cells [8],increased
same,NK cell expression of IP-10,NK cells [8],increased
same,NK cell expression of RANTES,NK cells [8],increased
same,NK cell expression of monocyte chemotactic protein-1 (MCP-1),NK cells [8],increased
same,enhancement of NK cell Fas-L expression,Fas-L; lenalidomide 1 μM + IL-2 + immobilized IgG,> 2 fold
same,NK cell Fas-L expression,"Fas-L; lenalidomide 1 μM + IL-2 + immobilized IgG, from <2%",25%
same,percentage of CD56+ NK cells expressing Fas-L,"Fas-L; lenalidomide 10 μM + immobilized IgG, from <5%",> 10%
same,NK cell Fas-L expression,Fas-L; lenalidomide 0.1-10 μM + IL-2 10 ng/mL + immobilized IgG,greater than that achieved by either agent alone
same,granzyme B production,"granzyme B; over that observed with IL-2 alone, dose-dependent",enhanced
same,perforin production,perforin; with IL-2,no effect
same,levels of phospho-SHIP-1,[9],decreased
same,pPLC-γ2 levels,pPLC-γ2,increasing
same,pERK levels,pERK,increasing
same,NK cell cytotoxicity,[10]; presence of IL-2,significantly increases
same,NK cell cytotoxicity,[10]; presence of IL-12,significantly increases
same,NK cell cytotoxicity,[11],significantly increases
same,production of any chemokines/cytokines,NK cells [12],did not induce
same,production of GM-CSF,NK cells [12],dose-dependently enhanced
same,production of IL-8,NK cells [12],dose-dependently enhanced
same,production of IP-10,NK cells [12],dose-dependently enhanced
same,production of MCP-1,NK cells [12],dose-dependently enhanced
same,production of MIP-1α,NK cells [12],dose-dependently enhanced
same,production of MIP-1β,NK cells [12],not
same,production of RANTES,NK cells [12],dose-dependently enhanced
"Nc1cccc2c1C(=O)N(C1CCC(=O)NC1=O)C2=O (stereo not shown) [pomalidomide, 1,3-dioxo-2-(2,6-dioxopiperidin-3-yl)-4-aminoisoindoline]",NK cell cytotoxicity,[3]; presence of IL-2 (FIG. 8B/9B),significantly increases
same,NK cell cytotoxicity,[3]; presence of IL-12 (FIG. 8E/9E),significantly increases
same,monocyte-mediated lysis,[6],enhance
same,"NK cell Fas-L expression, results compared with lenalidomide",Fas-L; FIG. 12,similar
same,levels of phospho-SHIP-1,[9],decreased
same,pPLC-γ2 levels,pPLC-γ2,Increase
same,pERK levels,pERK,Increase
same,NK cell cytotoxicity,[10]; presence of IL-2,significantly increases
same,NK cell cytotoxicity,[10]; presence of IL-12,significantly increases
same,NK cell cytotoxicity,[11],significantly increases
same,production of any chemokines/cytokines,NK cells [12],did not induce
same,production of GM-CSF,NK cells [12],dose-dependently enhanced
same,production of IL-8,NK cells [12],dose-dependently enhanced
same,production of IP-10,NK cells [12],dose-dependently enhanced
same,production of MCP-1,NK cells [12],dose-dependently enhanced
same,production of MIP-1α,NK cells [12],dose-dependently enhanced
same,production of MIP-1β,NK cells [12],not
same,production of RANTES,NK cells [12],dose-dependently enhanced
Rituximab: anti-CD20 antibody Rituximab (Rituxan®),NK cell-mediated killing,[5]; Rituximab-coated cells without lenalidomide,70%
same,increase in tumor cell killing above background,[5]; background killing=40%,approximately 30%
same,maximum killing activity,"[6]; Rituximab-coated cells, no immunomodulatory compound, E:T 50:1",~30%
CC[C@H](C)[C@H](NC(C)=O)C(=O)N[C@@H](CCC(=O)O)C(=O)N[C@H](C(=O)N[C@H](C=O)CC(=O)O)[C@@H](C)O [granzyme B inhibitor II] (Ac-IETD-aldehyde),effect on IL-2 stimulated granzyme B production,granzyme B; [15],abrogated
same,effect on IL-2-stimulated perforin production,perforin; [15],inactive
same,prevention of ADCC,[13],totally prevented
